Data reported in patent US20240174692A1, “PYRIMIDINE AROMATIC RING COMPOUNDS” (Medshine Discovery Inc., priority 2021, published 2024).
pIC50: −log10 of the molar value.

What was measured:
[1] = biological target: KRAS^G12D binding to c-Raf (Homo sapiens (Human), UniProt P01116, G12D); assay: SOS1-mediated binding of KRAS^G12D to effector protein c-Raf (TR-FRET); assay type: biochemical
[2] = Pharmacokinetic evaluation of compounds in dogs; assay type: in vivo; details: dog, plasma, Beagle dogs
Protocol: Purpose of assay: To assay the pharmacokinetic data of the compounds in Beagle dogs in vivo.
(§1) Compound 014 was mixed with vehicle 20% DMSO/60% PEG400/20% (10% HP-β-CD in water), and the mixture was vortexed and sonicated to give a clear solution of 4 mg/mL. The candidate compound solutions were administered intravenously. Whole blood was collected for a certain period of time to prepare plasma. The drug concentration was analyzed by LC-MS/MS method, and pharmacokinetic parameters were calculated.
as §1, with “mixed (15 mg/mL)” for “mixed”, “give solutions” for “give a clear solution”, “of 6 mg/mL to 15” for “of 4”, “administered orally.” for “administered intravenously.”

[3] = system: human colon cancer GP2D xenograft tumor; assay: In vivo pharmacodynamic study, GP2D xenograft tumor model in Balb/c nude mouse; details: PO
Protocol: An xenograft tumor model in GP2D Balb/c nude mouse:
Assay method: A Balb/c nude mouse model of subcutaneously xenograft tumor of human colon cancer GP2D cells was established. 0.2 mL (2×10^6) of GP2D cells (Matrigel was added, and volume ratio was 1:1) were inoculated subcutaneously on the right back of each mouse. When the average tumor volume reached 149 mm^3, the administration was started by group, with 6 mice in each group. On the day of the assay, the animals were administered the corresponding drugs according to the corresponding groups. The first group G1 was set as a negative control group, which was given 5% DMSO+95%(10% HP-β-CD) alone by gavage administration. The second group G2 to the fifth group G5 were given compound 014, and the dosage and protocol of administration were shown in Table 19.
During the assay, the body weight of animals and the tumor size were measured twice a week. Meanwhile, clinical symptoms of animals were observed and recorded every day. Each administration was referenced to the most recent body weight of animals.
The length (a) and width (b) of a tumor were measured with a digital vernier caliper. The calculation formula of tumor volume (TV) was: TV=a×b^2/2.

Chain of KRAS^G12D binding to c-Raf (P01116-2 other isoform, or with tags, fused parts or gaps G12D): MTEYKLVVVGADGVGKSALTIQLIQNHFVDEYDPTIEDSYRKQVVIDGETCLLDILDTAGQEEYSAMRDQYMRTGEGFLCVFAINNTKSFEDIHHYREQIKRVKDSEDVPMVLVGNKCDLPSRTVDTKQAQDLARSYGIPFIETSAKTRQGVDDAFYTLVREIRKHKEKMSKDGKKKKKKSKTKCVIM

C#Cc1c(F)ccc2cc(N)cc(-c3ccc4c(N5CC6CCC(C5)N6)nc(OC[C@@]56CCCN5C[C@H](F)C6)nc4c3F)c12 [Compound 014]
pIC50 [1]: 7.92 | AUC(0-inf) ([2]; IV, 1.56 mg/kg): 0.15 µM·h | C0 ([2]; IV, 1.56 mg/kg): 971 nM | Vd ([2]; IV, 1.56 mg/kg): 5.89 L/kg | clearance ([2]; IV, 1.56 mg/kg): 271 mL/min/kg | half-life ([2]; IV, 1.56 mg/kg): 0.56 h | AUC(0-inf) ([2]; PO, 32.1 mg/kg): 0.969 µM·h | Cmax ([2]; PO, 32.1 mg/kg): 439 nM | bioavailability ([2]; PO, 32.1 mg/kg): 16.9% | half-life ([2]; PO, 32.1 mg/kg): 10.8 h | Tumor volume inhibition rate TGI ([3]; G2, 25 mg/kg, BID*22, at day 14): 84.2% | Tumor volume inhibition rate TGI ([3]; G3, 50 mg/kg, BID*22, at day 14): 89.4% | Tumor volume inhibition rate TGI ([3]; G4, 150 mg/kg, BID*22, at day 14): 97.3% | Tumor volume inhibition rate TGI ([3]; G5, 150 mg/kg, QD*22): 91.4%
